Publication PMC6471177 (Pharmaceutics, 2019)
Where two headings read alike, the source gives them in different places.

Experiments:
[1] = Pharmacokinetics of intravenous docetaxel with oral LC478 in rats; assay type: in vivo, Sprague–Dawley rats; conditions: for Vd: read-out: Vss
Protocol: For the intravenous study, rats were divided into three groups according to LC478 doses (0, 30, and 100 mg/kg LC478, respectively). […] To prevent blood clotting, 0.3 mL of 0.9% NaCl-injectable solution containing heparin (20 U/mL) was flushed into each cannula immediately after each blood sampling. […] At this time, each rat was sacrificed by withdrawing blood via a heart puncture, and then the entire gastrointestinal tract (including its contents and feces) was extracted and transferred into a beaker. […] A 100 μL aliquot of the supernatant was collected from each beaker.

P-gp = assay: in vitro; conditions: rat, pH 7.4
Protocol: To evaluate the effect of LC478 on P-gp mediated efflux activity in rat’s small intestine, transport experiments were conducted following the previously reported method. The incubation medium (pH 7.4) involving […], 5 mM KCl, 1.2 mM CaCl2, 1.2 mM MgCl2, 25 mM NaHCO3, 1.6 mM Na2HPO4, 0.4 mM NaH2PO4, 5 mM D-glucose, and 5 mM D-mannitol was used throughout the transport experiments. […] The small intestine (2 cm from the proximal part of jejunum) was removed, opened along the mesenteric border and rinsed immediately in ice-cold buffer (pH 7.4) under carbogen O2/CO2 (95%/5%) bubbling. The specimens were fixed to 0.61 cm^2 surface area of cells in the Ussing chambers without harming the underlying muscle layer and formed two compartments, mucosal (M) and serosal (S) chambers. […] Cumulative corrections were made for previously removed samples and apparent permeability coefficients (Papp, cm/s) were calculated as follows: Papp = Q/A·c·t, where Q is the total amount of the drug permeated throughout the incubation time, A is the diffusion area of the Ussing chamber, c is the initial drug concentration in the donor compartment, and t is the total time of the experiment. Efflux ratios were calculated from Papp values by: Efflux ratio = secretory Papp/absorptive Papp.

[2] = Disappearance of docetaxel in rat hepatic microsomes with LC478; assay type: in vitro ADME; conditions: hepatic microsomes
Protocol: (§1) The hepatic and intestinal microsomes were prepared based on a similar reported method.
(§2) Adding 0.1 M phosphate buffer (pH 7.4) adjusted the total volume as 0.5 mL, and then the components were incubated at 37 °C using a thermomixer at 500 opm. After incubation of 15 and 30 min for the hepatic and intestinal microsomes, respectively, 1 mL of acetonitrile with 5 µg/mL of paclitaxel as an internal standard added to terminate the reaction.
(§3) The unweighted kinetic data from rat hepatic and intestinal microsomes were fitted using a single-site Michaelis–Menten Equation V = Vmax × [S]/(Km + [S])(4) where [S] is the substrate concentration, Vmax is maximal velocity, and Km is substrate concentration for half-maximal velocity. The CLint was calculated by dividing the Vmax by the Km.

[3] = Disappearance of docetaxel in rat intestinal microsomes with LC478; assay type: in vitro ADME; conditions: intestinal microsomes
Protocol: as §1, §2, §3

[4] = Rat plasma protein binding of docetaxel by equilibrium dialysis; assay type: in vitro ADME; conditions: equilibrium dialysis
Protocol: A 1 mL of the plasma was dialyzed against 1 mL of isotonic Sørensen phosphate buffer (pH 7.4) containing 3% dextran (w/v) in a dialysis cell (Spectrum Medical Industries, Laguna Hills, CA, USA) using a Spectra/Por 4 membrane (mol. wt. cutoff 12−14 KDa; Spectrum Medical Industries, USA).

[5] = cited from earlier work
[6] = male, Sprague-Dawley, rat, plasma, iv, 20 mg/kg, rats, docetaxel 20 mg/kg intravenous, with 0 mg/kg LC478
[7] = male, Sprague-Dawley, rat, plasma, iv, 20 mg/kg, rats, docetaxel 20 mg/kg intravenous, with 30 mg/kg oral LC478
[8] = male, Sprague-Dawley, rat, plasma, iv, 20 mg/kg, rats, docetaxel 20 mg/kg intravenous, with 100 mg/kg oral LC478
[9] = rats, docetaxel 20 mg/kg intravenous, with 0 mg/kg LC478
[10] = rats, docetaxel 20 mg/kg intravenous, with 30 mg/kg oral LC478
[11] = rats, docetaxel 20 mg/kg intravenous, with 100 mg/kg oral LC478

In the case of CC(=O)O[C@@]12CO[C@@H]1C[C@H](O)[C@@]1(C)C(=O)[C@H](O)C3=C(C)[C@@H](OC(=O)[C@H](O)[C@@H](NC(=O)OC(C)(C)C)c4ccccc4)C[C@@](O)([C@@H](OC(=O)c4ccccc4)[C@H]21)C3(C)C [docetaxel], the “Ae0–24 h” value ([1]; bound over all LC478 groups) is reported as “less than 1.56 % of dose”, the “contribution of CLR to CL” value ([1]; bound over all LC478 groups) is reported as “less than 1.56%” and the “Ae0–24 h smaller by” value ([1]; intravenous docetaxel, 100 mg/kg LC478 vs 0 mg/kg LC478) is reported as 31.1%. For the same molecule, the “Ae0–24 h smaller by” value ([1]; intravenous docetaxel, 100 mg/kg LC478 vs 30 mg/kg LC478) was 37.2%, the “CLR slower by” value ([1]; intravenous docetaxel, 100 mg/kg LC478 vs without LC478) was 40% and the GI24 h ([1]; intravenous docetaxel, bound over all LC478 groups) was “less than 1.76 % of the intravenous dose”. The AUC(0-inf) [1, 6] was 4.42 µg·h/mL, the AUC(0-t) [1, 6] was 4.22 µg·h/mL and the CL renal [1, 6] was 0.0678 ± 0.0259 L/h/kg. For the same molecule, the MRT [1, 6] was 0.965 h, the clearance [1, 6] was 4.7 ± 0.786 L/h/kg and the Vd [1, 6] was 4.57 ± 1.03 L/kg. The AUC(0-inf) [1, 7] was 5.05 µg·h/mL, the AUC(0-t) [1, 7] was 4.83 µg·h/mL and the CL renal [1, 7] was 0.0636 ± 0.0141 L/h/kg. For the same molecule, the MRT [1, 7] was 0.967 h, the clearance [1, 7] was 4.07 ± 0.702 L/h/kg and the half-life ([1]; male, Sprague-Dawley, rat, plasma, iv, 20 mg/kg, rats, docetaxel 20 mg/kg intravenous, with 30 mg/kg oral LC478, read-out: Terminal half-life) was 2.4 ± 0.627 h. The Vd [1, 7] was 4.02 ± 1.36 L/kg, the AUC(0-inf) [1, 8] was 4.58 µg·h/mL and the AUC(0-t) [1, 8] was 4.47 µg·h/mL. The CL renal [1, 8] was 0.0407 ± 0.0152 L/h/kg, the MRT [1, 8] was 1.12 h and the clearance [1, 8] was 4.22 ± 0.546 L/h/kg. The Vd [1, 8] was 4.91 ± 1.44 L/kg, the “Ae0–24 h” value [1, 9] was 1.42 ± 0.418 % of dose and the CLNR [1, 9] was 4.63 ± 0.768 L/h/kg. For the same molecule, the GI24 h [1, 9] was 0.881 ± 0.411 % of dose, the “Ae0–24 h” value [1, 10] was 1.56 ± 0.129 % of dose and the CLNR [1, 10] was 4.01 ± 0.684 L/h/kg. The Frel [1, 10] was 114%, the GI24 h [1, 10] was 1.01 ± 0.731 % of dose and the “Ae0–24 h” value [1, 11] was 0.979 ± 0.365 % of dose. For the same molecule, the CLNR [1, 11] was 4.18 ± 0.548 L/h/kg, the Frel [1, 11] was 104% and the GI24 h [1, 11] was 1.76 ± 0.958 % of dose. The Papp B→A at 3 h, 1 µM (P-gp) was 10.8 ± 1.15 nm/s, the “Vmax for disappearance of docetaxel” value ([2]; 5 µM LC478) was 0.438 ± 0.0578 nmol/min/mg protein and the “Vmax for disappearance of docetaxel” value ([2]; 10 µM LC478) was 0.427 ± 0.0411 nmol/min/mg protein. For the same molecule, the “Vmax for disappearance of docetaxel” value ([3]; 0 µM LC478) was 0.109 ± 0.0502 nmol/min/0.3 mg protein, the “Vmax for disappearance of docetaxel” value ([3]; 1 µM LC478) was 0.133 ± 0.0343 nmol/min/0.3 mg protein and the “Vmax for disappearance of docetaxel” value ([3]; 5 µM LC478) was 0.133 ± 0.0737 nmol/min/0.3 mg protein. The “Vmax for disappearance of docetaxel” value ([3]; 10 µM LC478) was 0.105 ± 0.0355 nmol/min/0.3 mg protein, the “Bound fraction to fresh rat plasma” value ([4]; with 0 μg/mL LC478) was 30.6% ± 11.5% and the “Bound fraction to fresh rat plasma” value ([4]; with 0.1 μg/mL LC478) was 33.4% ± 3.59%. For the same molecule, the “Bound fraction to fresh rat plasma” value ([4]; with 10 μg/mL LC478) was 29.7% ± 10.1% and the oral bioavailability [5] was “less than 5 % of the oral dose”.
